The values that follow come from US20070060595A1, “Novel fused heterocyclic compound and use thereof” (priority 2003, published 2007).

This experiment concerns the target recombinant human JNK (JNK1, JNK2). Kind of experiment: JNK inhibitory activity, enzyme assay (phosphorylation of biotinylated ATF2, Alpha Screen detection). In kind it is biochemical. As to conditions: JNK isoform not stated. How it is done: 5 μL of kinase buffer (25 mM Tris-HCl (pH 7.5), 5 mM β-glycerophosphoric acid, 2 mM dithiothreitol, 0.1 mM Na3VO4, 10 mM MgCl2) including recombinant human JNK (JNK1: Upstate Biotechnology #14-327, JNK2: Upstate Biotechnology #14-329) was added to well of 384-well plate for fluorescence assay (5 μL) (JNK1: 20 μU/well, JNK2: 50 μU/well). Then, kinase buffer including the compound of the present invention was added into it to carry out incubation for 20 minutes at room temperature. Subsequently, substrate mixture prepared with kinase buffer [biotinylated ATF2 (5 μg/mL) (Upstate Biotechnology #14-432), adenosine triphosphate (JNK1 activity measurement: 2 μmol/L, JNK2 activity measurement: 5 μmol/L) (Cell Signaling Technology #9804), anti-phosphorylated ATF2 antibody (20-fold dilution) (Cell Signaling Technology #9221L)] was added to carry out enzyme reaction for 30 minutes at 30° C. […] The amount of complex between phosphorylated ATF2 and anti-phosphorylated ATF2 was measured with Alpha Screen™ Rabbit Detection Kit (Packard #6760607).
JNK inhibitory activity which is the effect of the compound of the present invention was calculated as inhibition ratio (%) by the following equation: Inhibition ratio(%)=[(AC−AX)/(Ac−AB)]×100
AB: measured value without enzyme;
AC: measured value with enzyme and without a test compound;
AX: measured value with enzyme and a test compound

The structures appear in SMILES notation.

Turning to `Clc1cc(NCc2ccc3c(c2)OCO3)n2nccc2n1` [Example 1(1), N-(1,3-benzodioxol-5-ylmethyl)-5-chloropyrazolo[1,5-a]pyrimidin-7-amine], the IC50 is 330 nM.

Turning to `COc1cc(CNc2cc(-c3ccsc3)nc3ccnn23)cc(OC)c1OC` [Example 3, 5-thien-3-yl-N-(3,4,5-trimethoxybenzyl)pyrazolo[1,5-a]pyrimidin-7-amine], the IC50 amounted to 740 nM.
